Experimental data from article PMC7827406, “Structure–Activity Relationship (SAR) Study of Spautin-1 to Entail the Discovery of Novel NEK4 Inhibitors” (International Journal of Molecular Sciences, 2021).
Where two headings read alike, the source gives them in different places.

What was measured:
Assay in all cases: biochemical
Set-up in all cases: Eurofins KinaseProfiler full panel at Km ATP, residual kinase activity (%) relative to DMSO
HIPK3(h) = HIPK3(h) (Homo sapiens, UniProt Q9H422)
In short: (§1)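 Compounds screened at 10 µM in radiometric kinase activity assays at Km ATP, reported as remaining kinase activity (%). A KINOMEscan competition-binding screen at 10 µM measured DNA-tagged kinase retained on immobilized active-site ligand by qPCR.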

FGFR1(h) = FGFR1(h) (Homo sapiens, UniProt P11362)
In short: as §1

TAO2(h) = molecular target: T1, TAO2(h) (Homo sapiens, UniProt Q9UL54)
T1 construct: gene TAOK2
T1 sequence (Q9UL54 1-1235): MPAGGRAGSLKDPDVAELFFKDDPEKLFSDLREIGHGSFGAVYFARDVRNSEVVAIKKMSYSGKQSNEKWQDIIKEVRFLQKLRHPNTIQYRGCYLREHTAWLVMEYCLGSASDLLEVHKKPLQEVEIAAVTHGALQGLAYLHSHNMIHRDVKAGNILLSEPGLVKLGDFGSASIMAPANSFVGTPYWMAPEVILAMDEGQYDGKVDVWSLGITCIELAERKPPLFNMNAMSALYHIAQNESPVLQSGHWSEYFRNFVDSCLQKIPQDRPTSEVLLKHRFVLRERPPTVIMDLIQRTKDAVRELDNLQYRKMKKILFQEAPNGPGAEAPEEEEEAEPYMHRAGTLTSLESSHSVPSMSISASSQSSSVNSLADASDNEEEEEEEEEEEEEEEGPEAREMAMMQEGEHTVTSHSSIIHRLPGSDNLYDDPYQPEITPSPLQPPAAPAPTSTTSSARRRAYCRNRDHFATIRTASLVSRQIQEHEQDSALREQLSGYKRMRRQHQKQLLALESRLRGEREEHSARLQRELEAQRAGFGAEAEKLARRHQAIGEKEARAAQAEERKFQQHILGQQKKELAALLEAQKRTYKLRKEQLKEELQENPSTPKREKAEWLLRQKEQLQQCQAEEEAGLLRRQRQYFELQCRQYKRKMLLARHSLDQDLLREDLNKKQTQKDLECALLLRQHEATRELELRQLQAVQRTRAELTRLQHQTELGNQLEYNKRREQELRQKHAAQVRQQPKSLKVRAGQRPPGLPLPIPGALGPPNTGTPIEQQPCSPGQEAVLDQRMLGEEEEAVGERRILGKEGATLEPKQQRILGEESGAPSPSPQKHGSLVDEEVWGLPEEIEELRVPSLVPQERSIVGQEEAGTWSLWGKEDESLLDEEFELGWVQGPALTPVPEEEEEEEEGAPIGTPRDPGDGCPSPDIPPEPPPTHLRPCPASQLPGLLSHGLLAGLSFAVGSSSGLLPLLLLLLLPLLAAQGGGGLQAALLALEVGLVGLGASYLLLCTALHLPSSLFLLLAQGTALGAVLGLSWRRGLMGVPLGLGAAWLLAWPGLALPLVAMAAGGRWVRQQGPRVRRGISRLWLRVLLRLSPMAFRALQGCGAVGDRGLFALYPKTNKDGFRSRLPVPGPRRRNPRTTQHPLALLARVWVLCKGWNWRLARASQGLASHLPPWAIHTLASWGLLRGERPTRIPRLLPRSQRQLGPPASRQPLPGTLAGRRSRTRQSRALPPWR
In short: as §1

GRK7(h) = molecular target: T2, GRK7(h) (Homo sapiens, UniProt Q8WTQ7)
T2 sequence (Q8WTQ7 1-553): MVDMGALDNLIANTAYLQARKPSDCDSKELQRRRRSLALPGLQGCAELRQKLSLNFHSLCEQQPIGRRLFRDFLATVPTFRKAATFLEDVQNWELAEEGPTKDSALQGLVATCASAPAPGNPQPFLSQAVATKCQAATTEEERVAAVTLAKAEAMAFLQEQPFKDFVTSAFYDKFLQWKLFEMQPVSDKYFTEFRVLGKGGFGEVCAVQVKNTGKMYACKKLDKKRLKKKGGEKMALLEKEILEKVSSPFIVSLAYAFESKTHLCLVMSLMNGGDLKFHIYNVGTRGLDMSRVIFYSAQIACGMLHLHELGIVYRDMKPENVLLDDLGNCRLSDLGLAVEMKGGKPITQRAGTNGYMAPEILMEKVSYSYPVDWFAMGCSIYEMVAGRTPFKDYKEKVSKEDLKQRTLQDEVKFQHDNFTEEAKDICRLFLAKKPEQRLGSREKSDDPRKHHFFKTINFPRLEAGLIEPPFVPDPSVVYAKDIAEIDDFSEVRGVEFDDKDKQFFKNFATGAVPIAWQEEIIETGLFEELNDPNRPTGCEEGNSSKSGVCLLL
In short: as §1

Plk3(h) = Plk3(h) (Homo sapiens, UniProt Q9H4B4)
In short: as §1

HIPK1(h) = HIPK1(h) (Homo sapiens, UniProt Q86Z02)
In short: as §1

ROCK-II(r) = molecular target: T3, ROCK-II(r) (Rattus norvegicus, UniProt Q62868)
T3 construct: gene Rock2
In short: as §1

[1] = read-out: Residual activity (%) Spautin-1 5aa
[2] = read-out: Residual activity (%) 5as
[3] = read-out: Residual activity (%) 5at
[4] = read-out: Residual activity (%) 5ay

Sequence of HIPK1(h) (Q86Z02 whole entry): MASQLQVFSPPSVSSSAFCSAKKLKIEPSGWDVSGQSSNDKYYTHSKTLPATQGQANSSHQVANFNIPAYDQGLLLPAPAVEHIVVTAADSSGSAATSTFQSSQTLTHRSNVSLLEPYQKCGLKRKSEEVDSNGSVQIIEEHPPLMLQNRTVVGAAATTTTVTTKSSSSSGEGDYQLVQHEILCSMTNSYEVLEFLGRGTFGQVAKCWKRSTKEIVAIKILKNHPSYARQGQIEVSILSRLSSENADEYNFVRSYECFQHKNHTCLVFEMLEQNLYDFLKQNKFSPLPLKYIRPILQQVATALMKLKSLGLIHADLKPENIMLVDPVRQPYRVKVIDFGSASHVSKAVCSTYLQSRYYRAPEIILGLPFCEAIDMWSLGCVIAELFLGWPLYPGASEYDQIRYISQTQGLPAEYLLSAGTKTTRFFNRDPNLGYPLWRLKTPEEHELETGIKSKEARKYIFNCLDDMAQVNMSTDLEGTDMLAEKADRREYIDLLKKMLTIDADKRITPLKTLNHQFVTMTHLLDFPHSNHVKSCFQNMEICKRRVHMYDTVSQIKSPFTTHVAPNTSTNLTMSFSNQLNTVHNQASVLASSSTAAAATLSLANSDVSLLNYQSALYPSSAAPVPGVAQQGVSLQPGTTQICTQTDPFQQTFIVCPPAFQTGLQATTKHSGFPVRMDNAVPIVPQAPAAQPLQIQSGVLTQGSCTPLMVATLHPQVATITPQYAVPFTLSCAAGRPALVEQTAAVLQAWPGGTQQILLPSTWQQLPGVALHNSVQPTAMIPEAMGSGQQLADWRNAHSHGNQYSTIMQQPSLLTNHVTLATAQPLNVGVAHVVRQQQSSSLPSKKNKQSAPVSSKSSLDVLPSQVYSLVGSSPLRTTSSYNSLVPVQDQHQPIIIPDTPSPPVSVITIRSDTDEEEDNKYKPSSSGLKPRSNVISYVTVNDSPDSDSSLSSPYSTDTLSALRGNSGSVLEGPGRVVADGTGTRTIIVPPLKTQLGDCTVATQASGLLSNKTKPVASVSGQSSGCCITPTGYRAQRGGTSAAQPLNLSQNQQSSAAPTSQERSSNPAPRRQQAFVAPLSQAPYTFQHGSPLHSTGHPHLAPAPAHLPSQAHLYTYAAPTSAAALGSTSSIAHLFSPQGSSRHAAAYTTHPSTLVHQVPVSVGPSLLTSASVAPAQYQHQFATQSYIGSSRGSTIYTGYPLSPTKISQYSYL
Sequence of HIPK3(h) (Q9H422 whole entry): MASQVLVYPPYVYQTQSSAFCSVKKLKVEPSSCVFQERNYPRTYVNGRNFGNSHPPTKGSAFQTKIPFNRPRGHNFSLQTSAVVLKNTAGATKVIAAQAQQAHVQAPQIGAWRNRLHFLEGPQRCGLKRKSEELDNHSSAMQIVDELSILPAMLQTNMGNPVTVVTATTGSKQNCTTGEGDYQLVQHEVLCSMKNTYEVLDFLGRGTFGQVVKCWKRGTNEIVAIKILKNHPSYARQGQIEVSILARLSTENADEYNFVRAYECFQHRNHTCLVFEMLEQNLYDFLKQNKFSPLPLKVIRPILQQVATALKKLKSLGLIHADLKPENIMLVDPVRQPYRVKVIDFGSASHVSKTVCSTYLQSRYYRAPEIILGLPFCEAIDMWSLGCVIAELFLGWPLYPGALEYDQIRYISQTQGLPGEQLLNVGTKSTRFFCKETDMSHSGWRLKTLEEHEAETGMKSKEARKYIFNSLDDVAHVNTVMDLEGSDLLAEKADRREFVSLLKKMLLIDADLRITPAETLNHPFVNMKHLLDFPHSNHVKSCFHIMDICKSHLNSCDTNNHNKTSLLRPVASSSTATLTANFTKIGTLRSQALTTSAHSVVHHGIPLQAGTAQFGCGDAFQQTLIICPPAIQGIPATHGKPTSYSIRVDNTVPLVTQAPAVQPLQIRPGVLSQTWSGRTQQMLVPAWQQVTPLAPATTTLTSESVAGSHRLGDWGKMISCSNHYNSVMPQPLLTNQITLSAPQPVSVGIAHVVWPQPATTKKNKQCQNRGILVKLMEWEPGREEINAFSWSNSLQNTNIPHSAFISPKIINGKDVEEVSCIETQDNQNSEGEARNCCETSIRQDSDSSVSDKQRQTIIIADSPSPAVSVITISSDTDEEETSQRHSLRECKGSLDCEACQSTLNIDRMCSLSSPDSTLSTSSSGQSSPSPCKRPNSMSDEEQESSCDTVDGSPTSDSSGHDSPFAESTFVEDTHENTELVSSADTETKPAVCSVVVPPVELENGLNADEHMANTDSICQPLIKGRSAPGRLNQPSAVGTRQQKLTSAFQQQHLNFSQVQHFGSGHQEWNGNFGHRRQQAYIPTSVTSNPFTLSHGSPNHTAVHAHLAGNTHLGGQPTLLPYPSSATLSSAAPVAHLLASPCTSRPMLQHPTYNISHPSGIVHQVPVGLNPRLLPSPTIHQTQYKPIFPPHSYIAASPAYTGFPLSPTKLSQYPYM
Sequence of Plk3(h) (Q9H4B4 whole entry): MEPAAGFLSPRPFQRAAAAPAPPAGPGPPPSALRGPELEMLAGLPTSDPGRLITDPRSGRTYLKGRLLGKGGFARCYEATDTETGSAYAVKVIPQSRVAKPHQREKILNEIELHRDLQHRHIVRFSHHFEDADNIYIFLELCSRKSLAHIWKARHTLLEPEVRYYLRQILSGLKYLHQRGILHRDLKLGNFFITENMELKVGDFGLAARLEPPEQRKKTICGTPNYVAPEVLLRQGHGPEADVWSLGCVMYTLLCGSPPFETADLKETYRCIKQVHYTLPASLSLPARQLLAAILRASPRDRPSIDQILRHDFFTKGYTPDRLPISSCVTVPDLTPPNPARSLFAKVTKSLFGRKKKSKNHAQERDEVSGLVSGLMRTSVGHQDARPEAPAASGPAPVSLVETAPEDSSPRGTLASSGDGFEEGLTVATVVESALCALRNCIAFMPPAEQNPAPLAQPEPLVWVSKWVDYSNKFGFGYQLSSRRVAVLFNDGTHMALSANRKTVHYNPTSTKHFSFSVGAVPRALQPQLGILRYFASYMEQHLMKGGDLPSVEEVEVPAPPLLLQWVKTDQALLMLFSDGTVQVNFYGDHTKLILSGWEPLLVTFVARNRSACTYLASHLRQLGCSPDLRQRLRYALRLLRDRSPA
T3 sequence (Q62868 whole entry): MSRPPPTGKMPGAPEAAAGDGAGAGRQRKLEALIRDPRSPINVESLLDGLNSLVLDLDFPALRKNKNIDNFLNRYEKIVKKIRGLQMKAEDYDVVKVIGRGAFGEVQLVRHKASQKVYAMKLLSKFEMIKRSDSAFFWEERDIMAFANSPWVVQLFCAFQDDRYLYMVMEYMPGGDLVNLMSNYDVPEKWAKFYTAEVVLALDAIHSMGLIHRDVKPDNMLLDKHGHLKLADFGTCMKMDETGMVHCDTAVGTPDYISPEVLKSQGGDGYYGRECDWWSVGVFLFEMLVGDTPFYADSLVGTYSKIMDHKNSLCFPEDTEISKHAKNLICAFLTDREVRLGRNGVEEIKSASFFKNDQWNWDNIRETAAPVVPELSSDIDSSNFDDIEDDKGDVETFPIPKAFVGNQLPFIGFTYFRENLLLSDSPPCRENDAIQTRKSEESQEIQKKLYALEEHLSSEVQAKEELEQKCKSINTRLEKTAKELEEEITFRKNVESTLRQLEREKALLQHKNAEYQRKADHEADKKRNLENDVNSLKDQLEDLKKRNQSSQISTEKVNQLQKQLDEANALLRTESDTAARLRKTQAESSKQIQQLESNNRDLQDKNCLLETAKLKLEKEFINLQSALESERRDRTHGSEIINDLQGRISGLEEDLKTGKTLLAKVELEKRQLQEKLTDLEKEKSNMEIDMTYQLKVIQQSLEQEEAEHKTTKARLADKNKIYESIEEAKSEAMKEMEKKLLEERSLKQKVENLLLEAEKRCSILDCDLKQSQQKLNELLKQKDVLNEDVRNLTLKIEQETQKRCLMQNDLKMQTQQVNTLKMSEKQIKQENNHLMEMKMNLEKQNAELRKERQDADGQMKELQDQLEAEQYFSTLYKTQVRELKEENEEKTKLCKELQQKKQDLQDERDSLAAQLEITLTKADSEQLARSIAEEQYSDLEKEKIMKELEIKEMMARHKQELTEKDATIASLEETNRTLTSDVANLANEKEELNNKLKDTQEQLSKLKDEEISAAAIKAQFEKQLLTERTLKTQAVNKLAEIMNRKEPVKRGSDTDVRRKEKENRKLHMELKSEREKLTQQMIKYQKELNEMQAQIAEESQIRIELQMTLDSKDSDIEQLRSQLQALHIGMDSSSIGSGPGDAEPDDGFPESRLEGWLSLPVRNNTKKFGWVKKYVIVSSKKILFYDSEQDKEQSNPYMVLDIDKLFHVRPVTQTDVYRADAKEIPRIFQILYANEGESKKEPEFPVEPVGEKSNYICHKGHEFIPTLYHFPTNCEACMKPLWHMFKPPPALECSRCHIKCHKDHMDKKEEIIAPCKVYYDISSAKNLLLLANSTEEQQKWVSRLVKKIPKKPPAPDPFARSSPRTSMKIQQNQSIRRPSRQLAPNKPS

Compound Fc1ccc(CNc2ncnc3ccc(F)cc23)cc1 [5aa, 6-Fluoro-N-(4-fluorobenzyl)-4-Quinazolinamine] has a remaining activity at 10 µM (HIPK3(h); [1]) of 93%, a remaining activity at 10 µM (FGFR1(h); [1]) of 91% and a remaining activity at 10 µM (TAO2(h); [1]) of 110%. The remaining activity at 10 µM (GRK7(h); [1]) was 87%, the remaining activity at 10 µM (Plk3(h); [1]) was 88% and the remaining activity at 10 µM (HIPK1(h); [1]) was 94%. The remaining activity at 10 µM (ROCK-II(r); [1]) was 90%.

Fc1ccc(CCNc2ncnc3ccc(F)cc23)cc1 [5as, 6-Fluoro-N-[2-(4-Fluorophenyl)Ethyl]-4-Quinazolinamine] gave a remaining activity at 10 µM (HIPK3(h); [2]) of 98%, a remaining activity at 10 µM (FGFR1(h); [2]) of 105% and a remaining activity at 10 µM (TAO2(h); [2]) of 109%. For the same compound, the remaining activity at 10 µM (GRK7(h); [2]) was 95%, the remaining activity at 10 µM (Plk3(h); [2]) was 94% and the remaining activity at 10 µM (HIPK1(h); [2]) was 120%. It also gave a remaining activity at 10 µM (ROCK-II(r); [2]) of 105%.

Fc1ccc2ncnc(NCCc3ccc(Cl)cc3)c2c1 [5at, N-[2-(4-Chlorophenyl)Ethyl]-6-Fluoro-4-Quinazolinamine] showed a remaining activity at 10 µM (HIPK3(h); [3]) of 95%, a remaining activity at 10 µM (FGFR1(h); [3]) of 123% and a remaining activity at 10 µM (TAO2(h); [3]) of 107%. It also gave a remaining activity at 10 µM (GRK7(h); [3]) of 93%, a remaining activity at 10 µM (Plk3(h); [3]) of 99% and a remaining activity at 10 µM (HIPK1(h); [3]) of 103%. The remaining activity at 10 µM (ROCK-II(r); [3]) was 103%.

COc1ccc2ncnc(Nc3cccc(F)c3)c2c1 [5ay, N-(3-Fluorophenyl)-6-Methoxy-4-Quinazolinamine] was tested, and the remaining activity at 10 µM (HIPK3(h); [4]) was 84%, the remaining activity at 10 µM (FGFR1(h); [4]) was 81% and the remaining activity at 10 µM (TAO2(h); [4]) was 112%. The remaining activity at 10 µM (GRK7(h); [4]) was 91%, the remaining activity at 10 µM (Plk3(h); [4]) was 92% and the remaining activity at 10 µM (HIPK1(h); [4]) was 78%. It also gave a remaining activity at 10 µM (ROCK-II(r); [4]) of 98%.
